From patent US20210300912A1 (Ikena Oncology, Inc., priority 2019, published 2021)
Read-outs that look alike come from different tables or passages of the source.

Experiments:
AHR [1] = target: T1, AHR (Mus musculus, UniProt P30561); assay: P450 CYP1A1 Luciferase Assay, Hepa1.6, agonist; format: cell-based, murine; conditions: Hepa1.6 cells, CYP1A1 enzyme activity read-out, agonist mode; Table 2
T1 construct: endogenous in cells; host or cells: Hepa1-6 / Hepa1.6 (murine hepatoma); DRE-luciferase reporter transfected in A3, no transfection in A2
Procedure: AHR binds to Dioxin Responsive Elements (DRE) upstream of genes that it activates. One measure of AHR activity is P450 CYP1A1 protein levels determined by measuring CYP1A1 enzyme activity using a luminogenic CYP1A1 luciferin-based substrate. Luciferase activity will reflect CYP1A1 activity resulting from activation of AHR in the cells.
Murine Hepa1-6 or Hepa-1c1c7 or other murine cell line, human HepG2 or other human cell line are plated in media (96-well, 384-well or other plates) and incubated overnight at 37 C in a CO2 incubator.
(§1) The next day, an AHR agonist compound is added. Cells are incubated for 6, 16 or 24 hours or another time point and then lysed and incubated with a CYP1A1 luciferase-based substrate (e.g., Luciferin-CEE) for 3, 6, or 12 hours of another time point. Determination of luciferase activity as a read-out of CYP1A1 enzyme activity can be measured with a commercial kit such as the Promega P450 Glo CYP1A1 detection reagent or any kit or reagents that provide for measuring luciferase activity. The level of luciferase with only activating ligand (e.g., such as TCDD, kynurenine, ITE (2-(1H-indole-3-ylcarbonyl)-4-thiazolecarboxylic methyl ester), VAF347, BNF (beta-naphthoflavone), ICZ (6-formylindolo(3,2-b) carbazole or other AHR ligands) added is the maximum signal while the luciferase with no ligand is the minimum signal. EC50s can be determined as the concentration which activates half of the maximum luciferase activity.

AHR [2] = target: T2, AHR (Homo sapiens, UniProt P35869); assay: DRE-Luciferase Reporter Assay, HepG2, agonist; format: cell-based; conditions: HepG2 cells, agonist mode
T2 construct: endogenous in cells; host or cells: HepG2 (human), DRE-luciferase reporter stably or transiently transfected
T2 sequence (P35869 11-848): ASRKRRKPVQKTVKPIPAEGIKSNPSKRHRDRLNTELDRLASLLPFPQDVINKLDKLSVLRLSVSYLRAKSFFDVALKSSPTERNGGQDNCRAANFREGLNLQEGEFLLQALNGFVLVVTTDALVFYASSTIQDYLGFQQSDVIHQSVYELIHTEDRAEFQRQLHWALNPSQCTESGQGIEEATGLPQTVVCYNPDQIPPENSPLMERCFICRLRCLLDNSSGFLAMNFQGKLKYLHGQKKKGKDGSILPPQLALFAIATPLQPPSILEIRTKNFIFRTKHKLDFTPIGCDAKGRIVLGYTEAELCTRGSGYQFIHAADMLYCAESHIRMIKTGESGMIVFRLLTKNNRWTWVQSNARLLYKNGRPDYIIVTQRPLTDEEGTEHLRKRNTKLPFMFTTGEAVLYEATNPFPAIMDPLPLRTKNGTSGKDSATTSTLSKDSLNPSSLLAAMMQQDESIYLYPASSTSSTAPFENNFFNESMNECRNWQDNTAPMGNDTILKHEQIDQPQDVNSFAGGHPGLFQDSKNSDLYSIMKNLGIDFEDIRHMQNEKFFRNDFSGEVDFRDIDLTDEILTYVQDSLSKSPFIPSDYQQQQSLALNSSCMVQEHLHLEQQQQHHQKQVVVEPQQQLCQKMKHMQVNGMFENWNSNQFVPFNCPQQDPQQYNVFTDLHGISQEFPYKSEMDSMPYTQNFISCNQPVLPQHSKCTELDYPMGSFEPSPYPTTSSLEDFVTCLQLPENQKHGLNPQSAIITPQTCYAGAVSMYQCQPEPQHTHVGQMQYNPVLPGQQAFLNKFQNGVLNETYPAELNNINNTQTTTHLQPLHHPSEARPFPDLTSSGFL
Procedure: (§2) AHR binds to Dioxin Responsive Elements (DRE) upstream of genes that it activates. One measure of AHR activity is activation of a reporter gene, such as luciferase, downstream of one or multiple DRE elements. Luciferase activity will reflect activation and inhibition of AHR in the cells expressing this reporter.
(§3) Murine Hepa1-6 or Hepa-1c1c7 or other murine cell line with a DRE-luciferase reporter either stably or transiently transfected are plated in media in plates (96-well, 384-well or other plates) and incubated overnight at 37 C in a CO2 incubator. Likewise, human HepG2 or other human cell line with a DRE-luciferase reporter either stably or transiently transfected are plated in media in plates (96-well, 384-well or other plates) and incubated overnight at 37 C in a CO2 incubator.
as §1, with “lysed” for “lysed and incubated with a CYP1A1 luciferase-based substrate (e.g., Luciferin-CEE)”, “determination” for “3, 6, or 12 hours of another time point. Determination”, “the AHR activation. Luciferase” for “CYP1A1 enzyme activity”, “Luciferase kit” for “P450 Glo CYP1A1 detection reagent”, “provide the luciferin substrate” for “provide”, “(e.g.” for “(e.g.,”

AHR [3] = target: T1, AHR; assay: DRE-Luciferase Reporter Assay, Hepa1.6, agonist; format: cell-based, murine; conditions: Hepa1.6 cells, agonist mode
Procedure: as §2, §3
as §1, with “lysed” for “lysed and incubated with a CYP1A1 luciferase-based substrate (e.g., Luciferin-CEE)”, “determination” for “3, 6, or 12 hours of another time point. Determination”, “the AHR activation. Luciferase” for “CYP1A1 enzyme activity”, “Luciferase kit” for “P450 Glo CYP1A1 detection reagent”, “provide the luciferin substrate” for “provide”, “(e.g.” for “(e.g.,”

[4] = Table 2, read-out: DRE-Luc HepG2 - Agonist: Average EC50
[5] = DRE-Luc Hepa1.6 - Agonist: Average EC50 (μM), Table 3
[6] = Table 3, read-out: DRE-Luc HepG2 - Agonist: Average EC50
[7] = Table 3, read-out: DRE-Luc Hepa1.6 - Agonist: Average EC50

T1 sequence (P30561 10-805 limits assumed): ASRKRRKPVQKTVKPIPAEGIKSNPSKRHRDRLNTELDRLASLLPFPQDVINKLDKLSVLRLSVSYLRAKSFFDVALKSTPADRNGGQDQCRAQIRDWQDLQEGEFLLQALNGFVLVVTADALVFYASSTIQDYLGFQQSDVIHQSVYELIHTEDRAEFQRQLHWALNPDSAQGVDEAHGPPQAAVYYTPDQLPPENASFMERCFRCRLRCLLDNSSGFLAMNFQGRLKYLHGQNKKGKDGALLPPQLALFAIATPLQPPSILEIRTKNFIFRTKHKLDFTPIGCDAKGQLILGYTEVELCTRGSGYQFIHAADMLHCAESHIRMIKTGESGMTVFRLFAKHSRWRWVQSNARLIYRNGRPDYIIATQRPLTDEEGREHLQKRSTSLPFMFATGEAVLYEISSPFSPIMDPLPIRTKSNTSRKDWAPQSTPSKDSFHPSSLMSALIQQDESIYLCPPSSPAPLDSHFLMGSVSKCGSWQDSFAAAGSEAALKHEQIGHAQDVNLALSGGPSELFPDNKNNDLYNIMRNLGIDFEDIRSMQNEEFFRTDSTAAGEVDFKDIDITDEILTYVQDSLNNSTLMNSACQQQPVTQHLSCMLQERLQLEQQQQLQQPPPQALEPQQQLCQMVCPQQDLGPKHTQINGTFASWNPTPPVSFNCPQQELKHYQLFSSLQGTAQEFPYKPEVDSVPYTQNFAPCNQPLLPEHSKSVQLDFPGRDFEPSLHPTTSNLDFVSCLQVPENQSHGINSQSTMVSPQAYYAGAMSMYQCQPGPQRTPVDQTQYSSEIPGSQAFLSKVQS
T1 sequence (P11499 whole entry partner): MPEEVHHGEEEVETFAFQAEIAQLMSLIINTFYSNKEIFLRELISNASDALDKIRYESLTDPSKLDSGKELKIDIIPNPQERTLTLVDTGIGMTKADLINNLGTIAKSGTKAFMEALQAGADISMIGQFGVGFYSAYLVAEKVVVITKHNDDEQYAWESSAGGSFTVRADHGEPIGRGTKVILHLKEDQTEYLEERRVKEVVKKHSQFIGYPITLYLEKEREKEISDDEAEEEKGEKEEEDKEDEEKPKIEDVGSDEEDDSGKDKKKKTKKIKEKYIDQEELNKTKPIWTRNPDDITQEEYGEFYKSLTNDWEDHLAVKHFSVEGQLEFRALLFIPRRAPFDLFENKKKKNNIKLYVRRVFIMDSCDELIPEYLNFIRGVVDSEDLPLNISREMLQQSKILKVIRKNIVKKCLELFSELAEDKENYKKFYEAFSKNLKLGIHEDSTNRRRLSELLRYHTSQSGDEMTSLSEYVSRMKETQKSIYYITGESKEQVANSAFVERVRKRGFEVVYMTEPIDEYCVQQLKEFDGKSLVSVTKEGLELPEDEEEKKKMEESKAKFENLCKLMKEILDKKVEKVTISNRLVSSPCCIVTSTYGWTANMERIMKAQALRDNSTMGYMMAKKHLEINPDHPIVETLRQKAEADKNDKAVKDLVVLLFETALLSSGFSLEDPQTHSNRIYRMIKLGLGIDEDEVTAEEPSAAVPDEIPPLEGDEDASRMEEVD
T1 sequence (O08915 whole entry partner): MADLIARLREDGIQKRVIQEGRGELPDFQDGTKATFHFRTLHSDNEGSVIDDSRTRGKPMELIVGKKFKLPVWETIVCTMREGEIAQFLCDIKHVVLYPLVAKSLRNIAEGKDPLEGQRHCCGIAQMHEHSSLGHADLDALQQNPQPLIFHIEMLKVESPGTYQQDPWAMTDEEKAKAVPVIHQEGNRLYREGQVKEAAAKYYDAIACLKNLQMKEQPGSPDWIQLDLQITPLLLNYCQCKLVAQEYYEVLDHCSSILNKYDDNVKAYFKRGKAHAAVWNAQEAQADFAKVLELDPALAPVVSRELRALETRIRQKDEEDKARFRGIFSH

Compound	EC50 (AHR [1]) [nM]	EC50 (AHR [2]; [4]) [nM]	EC50 (AHR [3]; [5]) [µM]	EC50 (AHR [2]; [6]) [nM]	EC50 (AHR [3]; [7]) [µM]
CN1CCC(c2csc(C(=O)c3c[nH]c4ccccc34)n2)CC1 [Compound I-7]	> 1000	100 to 1000			
CC(C)c1csc(C(=O)c2c[nH]c3ccc(S(=O)(=O)O)cc23)n1 [Compound I-19]	> 1000	> 1000			
C[N+](C)(C)CCCN1CCC(c2csc(C(=O)c3c[nH]c4ccccc34)n2)CC1 [Compound I-20]	> 1000	> 1000			
O=C(c1nc([C@H]2CC[C@@H](O)CC2)cs1)c1c[nH]c2ccccc12 [Compound I-47]	> 1000	> 1000			
CC(C)(C)c1csc(C(=O)c2c[nH]c3ccccc23)n1 [Compound I-61]			< 0.01	< 10	
CNc1sc(C(=O)c2c[nH]c3ccccc23)nc1C(=O)OC [Compound I-84, Methyl 2-(1H-indole-3-carbonyl)-5-(methylamino)thiazole-4-carboxylate]			< 0.01	< 10	
COC(=O)c1csc(C(=O)c2c[nH]c3cc([N+](=O)[O-])ccc23)n1 [Compound I-90]			0.01 to 0.1	10 to 100	
COC(=O)c1nc(C(=O)c2c[nH]c3ccccc23)sc1Nc1ccccc1 [Compound I-91]				> 1000	> 1
O=C(c1nc(C(F)(F)F)cs1)c1c[nH]c2ccccc12 [Compound I-92]			< 0.01	< 10	
CC(C)c1csc(C(=O)c2c[nH]c3cc(C(=O)OCCOCCO)ccc23)n1 [Compound I-94]				> 1000	> 1
COC(=O)c1nc(C(=O)c2c[nH]c3ccccc23)sc1N(C)C [Compound I-95]				10 to 100	> 1
COC(=O)c1ccc2c(C(=O)c3nc(C(=O)OC)c(N)s3)c[nH]c2c1 [Compound I-96]			< 0.01	< 10	
N#Cc1nc(C(=O)c2c[nH]c3ccccc23)sc1Br [Compound I-97]				100 to 1000	> 1
CNC(=O)c1csc(C(=O)c2c[nH]c3ccccc23)n1 [Compound P-3]	> 1000				

Other lines, results leading:

EC50 (AHR [1]) [nM]	EC50 (AHR [2]; [4]) [nM]	EC50 (AHR [3]; [5]) [µM]	EC50 (AHR [2]; [6]) [nM]	EC50 (AHR [3]; [7]) [µM]	Compound
> 1000	< 10				COc1ccc2c(C(=O)c3nc(C(C)C)cs3)c[nH]c2c1 [Compound I-2]
> 1000	100 to 1000				O=C(c1nc([C@H]2CC[C@H](C(=O)O)CC2)cs1)c1c[nH]c2ccccc12 [Compound I-4]
> 1000	100 to 1000				O=C(O)CCCN1CCC(c2csc(C(=O)c3c[nH]c4ccccc34)n2)CC1 [Compound I-5]
> 1000	100 to 1000				C[N+]1(C)CCC(c2csc(C(=O)c3c[nH]c4ccccc34)n2)CC1 [Compound I-8]
> 1000	100 to 1000				O=C(c1nc([C@H]2CC[C@@H](C(=O)O)CC2)cs1)c1c[nH]c2ccccc12 [Compound I-9]
> 1000	100 to 1000				Cc1sc(C(=O)c2c[nH]c3ccccc23)nc1C(=O)OC1CC[N+](C)(C)CC1 [Compound I-10]
> 1000	100 to 1000				Cc1sc(C(=O)c2c[nH]c3ccccc23)nc1C(=O)OC(C)C [Compound I-11]
> 1000	> 1000				O=C(O)CCC(=O)N1CCC(c2csc(C(=O)c3c[nH]c4ccccc34)n2)CC1 [Compound I-18]
> 1000	> 1000				C[N+](C)(C)CCC(=O)N1CCC(c2csc(C(=O)c3c[nH]c4ccccc34)n2)CC1 [Compound I-23]
		> 1	> 1000		CC(C)c1csc(C(=O)c2c[nH]c3cc(C(=O)O)ccc23)n1 [Compound I-62]
			100 to 1000	> 1	CC(C)c1csc(C(=O)c2c[nH]c3ccc(C(=O)O)cc23)n1 [Compound I-78, 3-(4-Isopropylthiazole-2-carbonyl)-1H-indole-5-carboxylic acid]
			> 1000	> 1	CC(C)c1csc(C(=O)c2c[nH]c3c(C(=O)O)cccc23)n1 [Compound I-89]
		0.01 to 0.1	100 to 1000		COC(=O)c1csc(C(=O)c2c[nH]c3cccc(N)c23)n1 [Compound I-93]
> 1000	< 10				CC(C)c1csc(C(=O)c2c[nH]c3ccccc23)n1 [Compound P-2]
> 1000	10 to 100				COC(=O)c1csc(C(=O)c2c[nH]c3ccccc23)n1 [Compound P-4]
